Among the data in patent publication US10005774B2, “Syk inhibitors” (Gilead Sciences, Inc., priority 2013, dated 2018) are IC50 values, retold here.

The first assay has as its target Syk (Homo sapiens, UniProt P43405). In words: High Throughput Syk Biochemical Assay (KinEASE TR-FRET). The settings on record: TABLE D, 20 μM ATP, 1 μM biotinylated peptide, 0.015 nM Syk, 30 min at room temperature, read-out: IC50. The protocol:
High Throughput Syk Biochemical Assay
Syk activity was measured using KinEASE (Cisbio), a time-resolved fluorescence resonance energy transfer (TR-FRET) immunoassay. In this assay. Syk-catalyzes the phosporylation of a XL665-labeled peptide substrate. Europium conjugated phospho-tyrosine specific antibody binds the resulting phosphorylated peptide. Formation of phosphorylated peptide is quantified by TR-FRET with Europium as the donor and XL665 the acceptor in a 2-step endpoint assay. In brief, test compounds serially diluted in DMSO were delivered into Corning white, low volume, non-binding 384 well plates using the Echo 550 acoustic liquid dispenser (Labcyte®). Syk enzyme and substrates were dispensed into assay plates using a Multi-Flo (Bio-Tek Instruments). […] Percent inhibition was calculated as follows: % Inhibition=100×(RatioSample−Ratio0% Inhibition)/(Ratio100% Inhibition−Ratio0% Inhibition)
For orientation: In TR-FRET formats the signal depends on donor and acceptor labels being close together.
What is called IC50 is the point on the concentration scale where inhibition reaches its midpoint. With `COc1ccc(-c2cc3ncn(C)c3c(O[C@H](C)[C@H]3CNC(=O)C3)n2)cc1C#N`, the IC50 worked out at 16.7 nM.

For the compound `C[C@@H](Oc1nc(-c2ccc(N3CCOCC3)nc2)cc2ncn(C)c12)[C@H]1CNC(=O)C1`, the IC50 turned out to be 11.5 nM.

On to `C=CC[C@@H](Oc1nc(-c2cnn(C(C)(C)C)c2)cc2ncn(C)c12)[C@H]1CNC(=O)C1`, for which the IC50 was found to be 18.9 nM.

As to `CC[C@@H](Oc1nc(-c2ccc(OC)c(OC)c2)cc2ncn(C)c12)[C@H]1CNC(=O)C1`, the IC50 came out at 7.63 nM.

Consider `C[C@@H](Oc1cc(-c2cnn(CC(F)F)c2)cc2ncsc12)[C@H]1CNC(=O)C1` (stereo in doubt) [(R)-4-((R)-1-((5-(1-(2,2-difluoroethyl)-1H-pyrazol-4-yl)benzo[d]thiazol-7-yl)oxy)ethyl)pyrrolidin-2-one], for which the concentration for half-maximal inhibition (IC50) came out at 1.24 nM.

Consider `Cc1nc2cc(-c3cnn(C(C)(C)C)c3)cc(O[C@H](C)[C@H]3CNC(=O)C3)c2s1` (stereo in doubt) [(R)-4-((R)-1-((5-(1-(tert-butyl)-1H-pyrazol-4-yl)-2-methylbenzo[d]thiazol-7-yl)oxy)ethyl)pyrrolidin-2-one], for which the IC50 stood at 22.2 nM.

For `C[C@@H](Oc1cc(-c2cnn(C(C)(C)C)c2)cc2ncsc12)[C@H]1CNC(=O)C1` (stereo in doubt) [(R)-4-((R)-1-((5-(1-(tert-butyl)-1H-pyrazol-4-yl)benzo[d]thiazol-7-yl)oxy)ethyl)pyrrolidin-2-one], the concentration for half-maximal inhibition (IC50) is 0.894 nM.

For `C[C@@H](Oc1cc(-c2cnn(C3CCOCC3)c2)cc2ncsc12)[C@H]1CNC(=O)C1` (stereo in doubt) [(R)-4-((R)-1-((5-(1-(tetrahydro-2H-pyran-4-yl)-1H-pyrazol-4-yl)benzo[d]thiazol-7-yl)oxy)ethyl)pyrrolidin-2-one], the 50% inhibitory concentration (IC50) came to 0.699 nM.

For `C[C@@H](Oc1cc(-c2cnn(C3CCC3)c2)cc2ncsc12)[C@H]1CNC(=O)C1` (stereo in doubt) [(R)-4-((R)-1-((5-(1-cyclobutyl-1H-pyrazol-4-yl)benzo[d]thiazol-7-yl)oxy)ethyl)pyrrolidin-2-one], the IC50 was 0.693 nM.

Turning to `CC(C)n1ccc(-c2cc(O[C@H](C)[C@H]3CNC(=O)C3)c3scnc3c2)n1` (stereo in doubt) [(R)-4-((R)-1-((5-(1-isopropyl-1H-pyrazol-3-yl)benzo[d]thiazol-7-yl)oxy)ethyl)pyrrolidin-2-one], the IC50 came to 2.52 nM.

Regarding `CC(C)n1cc(-c2cc(O[C@H](C)[C@H]3CNC(=O)C3)c3scnc3c2)cn1` (stereo in doubt) [(R)-4-((R)-1-((5-(1-isopropyl-1H-pyrazol-4-yl)benzo[d]thiazol-7-yl)oxy)ethyl)pyrrolidin-2-one], the half-inhibitory concentration (IC50) is 0.697 nM.

Consider `C[C@@H](Oc1cc(-c2cc3c(cnn3C)s2)cc2ncsc12)[C@H]1CNC(=O)C1` (stereo in doubt) [(R)-4-((R)-1-((5-(1-methyl-1H-thieno[3,2-c]pyrazol-5-yl)benzo[d]thiazol-7-yl)oxy)ethyl)pyrrolidin-2-one], for which the IC50 is 2.97 nM.

Turning to `COc1ccc(-c2cc(O[C@H](C)[C@H]3CNC(=O)C3)c3scnc3c2)cc1OC` (stereo in doubt) [(R)-4-((R)-1-((5-(3,4-dimethoxyphenyl)benzo[d]thiazol-7-yl)oxy)ethyl)pyrrolidin-2-one], the IC50 stood at 5 nM.

With `C[C@@H](Oc1cc(-c2ccc(N3CCN(C4COC4)CC3)cc2)cc2ncsc12)[C@H]1CNC(=O)C1` (stereo in doubt) [(R)-4-((R)-1-((5-(4-(4-(oxetan-3-yl)piperazin-1-yl)phenyl)benzo[d]thiazol-7-yl)oxy)ethyl)pyrrolidin-2-one], the IC50 worked out at 0.681 nM.

For `C[C@@H](Oc1cc(-c2ccc(N3CCOCC3)cc2)cc2ncsc12)[C@H]1CNC(=O)C1` (stereo in doubt) [(R)-4-((R)-1-((5-(4-morpholinophenyl)benzo[d]thiazol-7-yl)oxy)ethyl)pyrrolidin-2-one], the 50% inhibitory concentration (IC50) came to 1.82 nM.

Regarding `COc1ccc(-c2cc(O[C@H](C)[C@H]3CNC(=O)C3)c3scnc3c2)nc1OC` (stereo in doubt) [(R)-4-((R)-1-((5-(5,6-dimethoxypyridin-2-yl)benzo[d]thiazol-7-yl)oxy)ethyl)pyrrolidin-2-one], the IC50 is 0.689 nM.

In the case of `C[C@@H](Oc1cc(-c2ccc(N3CCN(C4COC4)CC3)cn2)cc2ncsc12)[C@H]1CNC(=O)C1` (stereo in doubt) [(R)-4-((R)-1-((5-(5-(4-(oxetan-3-yl)piperazin-1-yl)pyridin-2-yl)benzo[d]thiazol-7-yl)oxy)ethyl)pyrrolidin-2-one], the IC50 amounted to 1.73 nM.

For `C[C@@H](Oc1cc(-c2ccc(N3CCN(C4CCOCC4)CC3)cn2)cc2ncsc12)[C@H]1CNC(=O)C1` (stereo in doubt) [(R)-4-((R)-1-((5-(5-(4-(tetrahydro-2H-pyran-4-yl)piperazin-1-yl)pyridin-2-yl)benzo[d]thiazol-7-yl)oxy)ethyl)pyrrolidin-2-one], the IC50 stood at 2.62 nM.

Turning to `CC(=O)N1CCN(c2ccc(-c3cc(O[C@H](C)[C@H]4CNC(=O)C4)c4scnc4c3)nc2)CC1` (stereo in doubt) [(R)-4-((R)-1-((5-(5-(4-acetylpiperazin-1-yl)pyridin-2-yl)benzo[d]thiazol-7-yl)oxy)ethyl)pyrrolidin-2-one], the IC50 came to 1.59 nM.

Take `C[C@@H](Oc1cc(-c2ccc(N3CCOCC3)cn2)cc2ncsc12)[C@H]1CNC(=O)C1` (stereo in doubt) [(R)-4-((R)-1-((5-(5-morpholinopyridin-2-yl)benzo[d]thiazol-7-yl)oxy)ethyl)pyrrolidin-2-one]: the half-inhibitory concentration (IC50) came out at 1.88 nM.

As to `C[C@H](Oc1cc(-c2cnc(C(C)(C)C)s2)cc2ncsc12)[C@@H]1CNC(=O)C1` (stereo in doubt) [(S)-4-((S)-1-((5-(2-(tert-butyl)thiazol-5-yl)benzo[d]thiazol-7-yl)oxy)ethyl)pyrrolidin-2-one], the 50% inhibitory concentration (IC50) is 1.5 nM.

For `C[C@@H](Oc1cc(-c2ccc(N3CCN(C(=O)OC(C)(C)C)CC3)cc2)cc2ncsc12)[C@H]1CNC(=O)C1` (stereo in doubt) [tert-butyl 4-(4-(7-((R)-1-((R)-5-oxopyrrolidin-3-yl)ethoxy)benzo[d]thiazol-5-yl)phenyl)piperazine-1-carboxylate], the 50% inhibitory concentration (IC50) was determined as 9.04 nM.

Consider `C[C@@H](Oc1cc(-c2ccc(N3CCN(C(=O)OC(C)(C)C)CC3)cn2)cc2ncsc12)[C@H]1CNC(=O)C1` (stereo in doubt) [tert-butyl 4-(6-(7-((R)-1-((R)-5-oxopyrrolidin-3-yl)ethoxy)benzo[d]thiazol-5-yl)pyridin-3-yl)piperazine-1-carboxylate], for which the IC50 turned out to be 5.16 nM.

With `COc1cc(-c2cc3ncn(C)c3c(O[C@H](C)[C@H]3CNC(=O)C3)n2)ccc1C#N` [2-methoxy-4-(3-methyl-4-((R)-1-((R)-5-oxopyrrolidin-3-yl)ethoxy)-3H-imidazo[4,5-c]pyridin-6-yl)benzonitrile], the half-inhibitory concentration (IC50) was 74.2 nM.

As for `C[C@@H](Oc1nc(-c2ccc(C#N)cc2)cc2ncn(C)c12)[C@H]1CNC(=O)C1` [4-(3-methyl-4-((R)-1-((R)-5-oxopyrrolidin-3-yl)ethoxy)-3H-imidazo[4,5-c]pyridin-6-yl)benzonitrile], the IC50 was found to be 28.4 nM.

With `C[C@@H](Oc1nc(-c2cc[nH]c(=O)c2)cc2ncn(C)c12)[C@H]1CNC(=O)C1` [4-(3-methyl-4-((R)-1-((R)-5-oxopyrrolidin-3-yl)ethoxy)-3H-imidazo[4,5-c]pyridin-6-yl)pyridin-2(1H)-one], the concentration for half-maximal inhibition (IC50) amounted to 97.5 nM.

The assay is the same for the next values; noted with them: table 'ALL NEW COMPOUNDS IN 2014', 20 μM ATP, 1 μM biotinylated peptide, 0.015 nM Syk, 30 min at room temperature, read-out: Syk IC50.
On to `C[C@@H](Oc1nc(-c2ccc3oc(=O)n(C)c3c2)cc2ncn(C3CC3)c12)[C@H]1CNC(=O)C1`, for which the half-inhibitory concentration (IC50) turned out to be 14.4 nM.

Consider `C[C@@H](Oc1nc(-c2ccc3c(c2)n(C)c(=O)n3C)cc2ncn(C3CC3)c12)[C@H]1CNC(=O)C1`, for which the 50% inhibitory concentration (IC50) was found to be 4.84 nM.

With `Cc1ncc(-c2cc(O[C@H](C)[C@H]3CNC(=O)C3)c3c(c2)ncn3C2CC2)[nH]1`, the half-inhibitory concentration (IC50) turned out to be 20.9 nM.

As to `C[C@@H](Oc1nc(-c2cnn(C(C)(C)CO)c2)cc2ncn(C3CC3)c12)[C@H]1CNC(=O)C1`, the IC50 was found to be 3.43 nM.

As for `C[C@@H](Oc1nc(-c2cnn(CC(C)(C)O)c2)cc2ncn(C3CC3)c12)[C@H]1CNC(=O)C1`, the IC50 worked out at 9.65 nM.

For `C[C@@H](Oc1nc(-c2cnn(C3COC3)c2)cc2ncn(C3CC3)c12)[C@H]1CNC(=O)C1`, the IC50 turned out to be 4.65 nM.

On to `C[C@@H](Oc1nc(-c2cnn(-c3ccncc3)c2)cc2ncn(C3CC3)c12)[C@H]1CNC(=O)C1`, for which the half-maximal inhibitory concentration (IC50) came to 8.29 nM.

As to `C[C@@H](Oc1nc(-c2ccc3c(C4CC4)n[nH]c3c2)cc2ncn(C3CC3)c12)[C@H]1CNC(=O)C1`, the half-inhibitory concentration (IC50) came to 6.12 nM.

With `C[C@@H](Oc1nc(-c2ccc(C3(O)CC3)cc2)cc2ncn(C3CC3)c12)[C@H]1CNC(=O)C1`, the concentration for half-maximal inhibition (IC50) stood at 8.52 nM.

For `C[C@@H](Oc1nc(-c2ccccc2)cc2ncn(C3CC3)c12)[C@H]1CNC(=O)C1`, the IC50 stood at 12.5 nM.

For `C[C@@H](Oc1nc(-c2ccc3c(c2)N(C)C(=O)OC3(C)C)cc2ncn(C)c12)[C@H]1CNC(=O)C1` [1,4,4-trimethyl-7-(3-methyl-4-((R)-1-((R)-5-oxopyrrolidin-3-yl)ethoxy)-3H-imidazo[4,5-c]pyridin-6-yl)-1H-benzo[d][1,3]oxazin-2(4H)-one], the IC50 turned out to be 2.5 nM.

On to `C[C@@H](Oc1nc(-c2ccc3c(c2)NC(=O)OC3(C)C)cc2ncn(C)c12)[C@H]1CNC(=O)C1` [4,4-dimethyl-7-(3-methyl-4-((R)-1-((R)-5-oxopyrrolidin-3-yl)ethoxy)-3H-imidazo[4,5-c]pyridin-6-yl)-1H-benzo[d][1,3]oxazin-2(4H)-one], for which the IC50 came out at 0.935 nM.
